Patent US10267737B2, “Near-infrared fluorescent probe for detecting alkaline phosphatase and manufacturing method thereof” (KOREA RESEARCH INSTITUTE OF BIOSCIENCE AND BIOTECHNOLOGY, priority 2016, dated 2019)

What was measured:
ALP [1] = experiment: Evaluation of selective ALP detection; assay type: biochemical; details: versus BSA, trypsin, lysozyme, AcHE, GOx, uricase, thrombin
Text: ALP, BSA, trypsin, lysozyme, acetylcholinesterase (AcHE), glucose oxidase (GOx), uricase and thrombin were used for the evaluation.

[2] = Affinity for scaffold, light absorption of probe solution after adsorption; assay type: binding; details: CDHA/DCPD scaffold
ALP [3] = experiment: Fluorescence response depending on ALP concentration; assay type: biochemical; details: for new absorption peak in the presence of ALP: probe 5 μM, ALP 0.1 UmL^−1, Tris-HCl 10 mM, pH 7.4; for fluorescence due to dephosphorylation of ALP: λex=685 nm
Experimental: Reactivity depending on ALP concentration was evaluated for the NIR-Phos-1 and NIR-Phos-2 fluorescent probes. After dissolving the fluorescent probe (5 μM) in a Tri-HCl buffer (10 mM, pH 7.4), the fluorescence spectrum occurring as a result of reaction with ALP (0.1 UmL^−1) was investigated.
From FIG. 5B and FIG. 5D, it can be seen that fluorescence spectra are changed variously by adding a Tris-HCl buffer (10 mM, pH 7.4) to ALP (10^−5 to 1.0 UmL^−1) of various concentrations.

[4] = Affinity for scaffold, light absorption of probe solution after adsorption; assay type: binding; details: CDHA scaffold
[5] = Fluorescence stability (photostability) test; assay type: physicochemical; details: 685 nm light, 150-W xenon lamp, 1 hour, Tris-HCl 10 mM, pH 7.4
Experimental: The photostability of a fluorescent probe is important for in-vitro and in-vivo fluorescence detection. Therefore, the photostability of the NIR-Phos-1 and NIR-Phos-2 fluorescent probes was evaluated by irradiating light at 685 nm from a 150-W xenon lamp for 1 hour in a Tris-HCl buffer (10 mM, pH 7.4) and measuring the change in fluorescence intensity.

[6] = Affinity for calcium salts, NIR fluorescence imaging; assay type: binding; details: PBS buffer
Experimental: The affinity of the NIR-Phos-1 and NIR-Phos-2 fluorescent probes for a calcium salt-containing scaffold was evaluated. As the scaffold, calcium carbonate (CC), calcium phosphate (CP), hydroxyapatite (HA), calcium perchlorate (CPC), calcium chloride (CCH) and calcium nitrate (CN) were used. The fluorescent probe and the scaffold were immersed in a PBS buffer and subjected to NIR fluorescence imaging.

ALP [7] = experiment: Evaluation of sensitivity for ALP with ALP inhibitor p-BTO pre-treatment; assay type: biochemical; details: for sensitivity for ALP: with and without p-BTO pre-treatment
Experimental: After pre-treating with the ALP inhibitor p-BTO (p-bromotetramisole oxalate) at 1-2.5 mM, the fluorescent probe was mixed with ALP.

Row | Structure (SMILES) | selective detection of ALP (ALP [1]) | decrease of light absorption by the probe solution after adsorption [2] | new absorption peak in the presence of ALP (ALP [3]) | fluorescence due to dephosphorylation of ALP (ALP [3]) | decrease of light absorption by the probe solution after adsorption [4] | photostability (change in fluorescence intensity) [5] | affinity for hydroxyapatite (HA) particles compared to calcium salts CC, CP, CPC, CCH, CN [6] | sensitivity for ALP (ALP [7]) | hydrolysis of the fluorescent probe and ALP (ALP [7]; p-BTO 1-2.5 mM pre-treatment, fluorescence intensity decreased gradually as p-BTO concentration increased)
1 | CC[N+]1=C(/C=C/C2=C3Oc4cc(OCc5ccc(OP(=O)(O)O)cc5)ccc4C=C3CCC2)C(C)(C)c2cc(S(=O)(=O)[O-])ccc21 [NIR-Phos-1, (E)-1-ethyl-3,3-dimethyl-2-(2-(6-((4-(phosphonooxy)benzyl)oxy)-2,3-dihydro-1H-xanthen-4-yl)vinyl)-3H-indol-1-ium-5-sulfonate] | selectively detect ALP only | 3.8% | 710 nm | 710 nm | 29.4% | superior photostability | higher affinity | good sensitivity | 
2 | CC[N+]1=C(/C=C/C2=C3Oc4cc(OP(=O)(O)O)ccc4C=C3CCC2)C(C)(C)c2cc(S(=O)(=O)[O-])ccc21 [NIR-Phos-2, (E)-1-ethyl-3,3-dimethyl-2-(2-(6-(phosphonooxy)-2,3-dihydro-1H-xanthen-4-yl)vinyl)-3H-indol-1-ium-5-sulfonate] | selectively detect ALP only |  | 710 nm | 710 nm |  | superior photostability | higher affinity | good sensitivity | 
3 | Brc1ccc(C2CN3CCSC3=N2)cc1.O=C(O)C(=O)O (stereo not drawn) [p-BTO, p-bromotetramisole oxalate, reference compound] |  |  |  |  |  |  |  |  | inhibited
